Assay results taken from US20120053200A1, “BACE 2 INHIBITORS” (priority 2010, published 2012).

molecular target: T1, BACE2 (Rattus norvegicus, UniProt Q6IE75); experiment: Assay for BACE inhibition by measuring cellular TMEM27 cleavage (INS-TMEM27 cells, ELISA of shed TMEM27); format: cell-based; details: inhibition of human TMEM27 cleavage by endogenous cellular BACE2 in INS1e-derived INS-TMEM27 rat cell line; ELISA of shed TMEM27 in supernatant
T1 construct: endogenous cellular BACE2 in the Ins1e rat cell line; endogenous in cells; host or cells: INS-TMEM27 (INS1e-derived rat beta-cell line with doxycycline-inducible full-length hTMEM27)
T1 sequence (Q6IE75 63-514): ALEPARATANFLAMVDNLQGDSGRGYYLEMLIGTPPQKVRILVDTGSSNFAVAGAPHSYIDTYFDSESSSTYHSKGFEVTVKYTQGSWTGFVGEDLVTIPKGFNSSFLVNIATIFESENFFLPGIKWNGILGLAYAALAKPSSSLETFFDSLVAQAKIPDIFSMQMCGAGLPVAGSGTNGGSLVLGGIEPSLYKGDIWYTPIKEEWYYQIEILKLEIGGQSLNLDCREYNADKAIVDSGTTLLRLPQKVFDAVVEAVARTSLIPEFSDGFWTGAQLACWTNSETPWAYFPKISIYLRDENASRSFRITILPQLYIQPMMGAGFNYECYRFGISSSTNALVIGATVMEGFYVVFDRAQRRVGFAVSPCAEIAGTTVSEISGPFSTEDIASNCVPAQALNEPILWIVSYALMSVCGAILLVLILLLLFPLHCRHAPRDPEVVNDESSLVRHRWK
Description: Assay for […] Inhibition by Measuring Cellular TMEM27 Cleavage
This assay uses the principle of inhibition of human TMEM27 cleavage by endogenous cellular BACE2 in the Ins1e rat cell line and shedding from the cell surface into the culture medium, followed by detection in an ELISA assay. Inhibition of BACE2 prevents the cleavage and shedding in a dose-dependent manner.
The stable cell line “INS-TMEM27” represents an INS1e-derived cell line with inducible expression (using the TetOn system) of full-length hTMEM27 in a doxycycline-dependent manner. The cells were cultured throughout the experiment in RPMI1640+Glutamax (Invitrogen) Penicillin/Streptomycin, 10% Fetal bovine serum, 100 mM pyruvate, […] beta-mercatptoethanol, 100 micrograms/ml G418 and 100 microgram/ml hygromycin and were grown in adherent culture at 37° C. in a standard CO2 cell culture incubator.
INS-TMEM27 cells were seeded in 96-well plates. After 2 days in culture, BACE2 inhibitor was added in a range of concentrations as required by the assay and after a further two hours, doxycycline was added to a final concentration of 500 ng/ml. The cells were incubated for a further 46 hours and the supernatant harvested for detection of shed TMEM27.
An ELISA assay (using a pair of mouse anti-human-TMEM27 antibodies, raised against the extracellular domain of TMEM27) was used for detection of TMEM27 in the culture medium. An IC50 for BACE2 inhibition was calculated using the ELISA readout for each inhibitor concentration with standard curve-fitting software.
The inhibitory activity, given as an IC50 value, of the compounds of Examples 1 to 32 and 34 to 74 were as follows.

SMILES	IC50 [nM]
Cc1cc(C(=O)N[C@@H](Cc2ccccc2)[C@H](O)CNCc2cccc(OC(F)(F)F)c2)cc(C(=O)N(C)Cc2nc(C)cs2)c1 [Example 47, N-[(1S,2R)-1-Benzyl-2-hydroxy-3-(3-trifluoromethoxy-benzylamino)-propyl]-5,N′-dimethyl-N′-(4-methyl-thiazol-2-ylmethyl)-isophthalamide]	117
Cc1csc([C@H]2CCCN2C(=O)c2cc(C(=O)N[C@@H](Cc3ccccc3)[C@H](O)CNCc3cccc(C(F)(F)F)c3)cc(N(C)S(C)(=O)=O)c2)n1 [Example 48, N-[(1S,2R)-1-Benzyl-2-hydroxy-3-(3-trifluoromethyl-benzylamino)-propyl]-3-(methanesulfonyl-methyl-amino)-5-[(R)-2-(4-methyl-thiazol-2-yl)-pyrrolidine-1-carbonyl]-benzamide]	81
Cc1cc(C(=O)N[C@@H](Cc2ccccc2)[C@H](O)CNCc2cccc(C(F)(F)F)c2)cc(C(=O)N2CCC[C@@H]2c2nc(C)cs2)c1 [Example 49, N-[(1S,2R)-1-Benzyl-2-hydroxy-3-(3-trifluoromethyl-benzylamino)-propyl]-3-methyl-5-[(R)-2-(4-methyl-thiazol-2-yl)-pyrrolidine-1-carbonyl]-benzamide]	119
Cc1cc(C(=O)N[C@@H](Cc2ccccc2)[C@H](O)CNCc2cccc(C(F)(F)F)c2)cc(C(=O)N(C)Cc2ccccn2)c1 [Example 52, N-[(1S,2R)-1-Benzyl-2-hydroxy-3-(3-trifluoromethyl-benzylamino)-propyl]-5,N′-dimethyl-N′-pyridin-2-ylmethyl-isophthalamide]	95
COc1ccc(C2CCCN2C(=O)c2cccc(C(=O)N[C@@H](Cc3ccccc3)[C@H](O)CNCc3cccc(C(F)(F)F)c3)c2)cc1 (stereo partly drawn) [Example 56, N-[(1S,2R)-1-Benzyl-2-hydroxy-3-(3-trifluoromethyl-benzylamino)-propyl]-3-[2-(4-methoxy-phenyl)-pyrrolidine-1-carbonyl]-benzamide]	115
O=C(N[C@@H](Cc1ccccc1)[C@H](O)CNCc1cccc(C(F)(F)F)c1)c1cccc(C(=O)N2CCCC2c2cccc(Cl)c2)c1 (stereo partly drawn) [Example 57, N-[(1S,2R)-1-Benzyl-2-hydroxy-3-(3-trifluoromethyl-benzylamino)-propyl]-3-[2-(3-chloro-phenyl)-pyrrolidine-1-carbonyl]-benzamide]	619
Cc1cccc(C2CCCN2C(=O)c2cccc(C(=O)N[C@@H](Cc3ccccc3)[C@H](O)CNCc3cccc(C(F)(F)F)c3)c2)c1 (stereo partly drawn) [Example 58, N-[(1S,2R)-1-Benzyl-2-hydroxy-3-(3-trifluoromethyl-benzylamino)-propyl]-3-(2-m-tolyl-pyrrolidine-1-carbonyl)-benzamide]	89
Cc1cc(C2CCCN2C(=O)c2cccc(C(=O)N[C@@H](Cc3ccccc3)[C@H](O)CNCc3cccc(C(F)(F)F)c3)c2)ccc1Cl (stereo partly drawn) [Example 60, N-[(1S,2R)-1-Benzyl-2-hydroxy-3-(3-trifluoromethyl-benzylamino)-propyl]-3-[2-(4-chloro-3-methyl-phenyl)-pyrrolidine-1-carbonyl]-benzamide]	267
CCc1ccc(C2CCCN2C(=O)c2cccc(C(=O)N[C@@H](Cc3ccccc3)[C@H](O)CNCc3cccc(C(F)(F)F)c3)c2)cc1 (stereo partly drawn) [Example 62, N-[(1S,2R)-1-Benzyl-2-hydroxy-3-(3-trifluoromethyl-benzylamino)-propyl]-3-[2-(4-ethyl-phenyl)-pyrrolidine-1-carbonyl]-benzamide]	764
O=C(N[C@@H](Cc1ccccc1)[C@H](O)CNCc1cccc(C(F)(F)F)c1)c1cccc(C(=O)N2CCC[C@H]2Cc2ccccc2)c1 [Example 65, N-[(1S,2R)-1-Benzyl-2-hydroxy-3-(3-trifluoromethyl-benzylamino)-propyl]-3-((S)-2-benzyl-pyrrolidine-1-carbonyl)-benzamide]	51
O=C(N[C@@H](Cc1ccccc1)[C@H](O)CNCc1cccc(C(F)(F)F)c1)c1cccc(C(=O)N2CCC[C@@H]2c2ccccc2)c1 [Example 66, N-[(1S,2R)-1-Benzyl-2-hydroxy-3-(3-trifluoromethyl-benzylamino)-propyl]-3-((R)-2-phenyl-pyrrolidine-1-carbonyl)-benzamide]	314

Now those with a lower IC50, led by results:

IC50 [nM]	SMILES
11	CN(c1cc(C(=O)N[C@@H](Cc2ccccc2)[C@H](O)CNCc2cccc(OC(F)(F)F)c2)cc(C(=O)N2CCCC2c2cccs2)c1)S(C)(=O)=O (stereo partly drawn) [Example 45, N-[(1S,2R)-1-Benzyl-2-hydroxy-3-(3-trifluoromethoxy-benzylamino)-propyl]-3-(methanesulfonyl-methyl-amino)-5-(2-thiophen-2-yl-pyrrolidine-1-carbonyl)-benzamide]
1	Cc1cc(C(=O)N[C@@H](Cc2ccccc2)[C@H](O)CNCc2cccc(OC(F)(F)F)c2)cc(C(=O)N2CCCC2c2cccs2)c1 (stereo partly drawn) [Example 46, N-[(1S,2R)-1-Benzyl-2-hydroxy-3-(3-trifluoromethoxy-benzylamino)-propyl]-3-methyl-5-(2-thiophen-2-yl-pyrrolidine-1-carbonyl)-benzamide]
0.4	Cc1cc(C(=O)N[C@@H](Cc2ccccc2)[C@H](O)CNCc2cccc(C(F)(F)F)c2)cc(C(=O)N2CCCC2c2ccccc2)c1 (stereo partly drawn) [Example 51, N-[(1S,2R)-1-Benzyl-2-hydroxy-3-(3-trifluoromethyl-benzylamino)-propyl]-3-methyl-5-(2-phenyl-pyrrolidine-1-carbonyl)-benzamide]
29	CN(c1cc(C(=O)N[C@@H](Cc2ccccc2)[C@H](O)CNCc2cccc(C(F)(F)F)c2)cc(C(=O)N2CCCC2c2cccs2)c1)S(C)(=O)=O (stereo partly drawn) [Example 53, N-[(1S,2R)-1-Benzyl-2-hydroxy-3-(3-trifluoromethyl-benzylamino)-propyl]-3-(methanesulfonyl-methyl-amino)-5-(2-thiophen-2-yl-pyrrolidine-1-carbonyl)-benzamide]
1.9	Cc1cc(C(=O)N[C@@H](Cc2ccccc2)[C@H](O)CNCc2cccc(C(F)(F)F)c2)cc(C(=O)N2CCCC2c2cccs2)c1 (stereo partly drawn) [Example 54, N-[(1S,2R)-1-Benzyl-2-hydroxy-3-(3-trifluoromethyl-benzylamino)-propyl]-3-methyl-5-(2-thiophen-2-yl-pyrrolidine-1-carbonyl)-benzamide]
42	Cc1ccc(C2CCCN2C(=O)c2cccc(C(=O)N[C@@H](Cc3ccccc3)[C@H](O)CNCc3cccc(C(F)(F)F)c3)c2)cc1 (stereo partly drawn) [Example 55, N-[(1S,2R)-1-Benzyl-2-hydroxy-3-(3-trifluoromethyl-benzylamino)-propyl]-3-(2-p-tolyl-pyrrolidine-1-carbonyl)-benzamide]
33	O=C(N[C@@H](Cc1ccccc1)[C@H](O)CNCc1cccc(C(F)(F)F)c1)c1cccc(C(=O)N2CCCC2c2ccc(F)c(Cl)c2)c1 (stereo partly drawn) [Example 59, N-[(1S,2R)-1-Benzyl-2-hydroxy-3-(3-trifluoromethyl-benzylamino)-propyl]-3-[2-(3-chloro-4-fluoro-phenyl)-pyrrolidine-1-carbonyl]-benzamide]
1	CC1CCN(C(=O)c2cccc(C(=O)N[C@@H](Cc3ccccc3)[C@H](O)CNCc3cccc(C(F)(F)F)c3)c2)C1c1ccc(F)cc1 (stereo partly drawn) [Example 63, N-[(1S,2R)-1-Benzyl-2-hydroxy-3-(3-trifluoromethyl-benzylamino)-propyl]-3-[2-(4-fluoro-phenyl)-3-methyl-pyrrolidine-1-carbonyl]-benzamide]
26	CC(=O)C1CC(c2ccc(F)cc2)N(C(=O)c2cccc(C(=O)N[C@@H](Cc3ccccc3)[C@H](O)CNCc3cccc(C(F)(F)F)c3)c2)C1 (stereo partly drawn) [Example 64, 3-[4-Acetyl-2-(4-fluoro-phenyl)-pyrrolidine-1-carbonyl]-N-[(1S,2R)-1-benzyl-2-hydroxy-3-(3-trifluoromethyl-benzylamino)-propyl]-benzamide]
4	O=C(N[C@@H](Cc1ccccc1)[C@H](O)CNCc1cccc(C(F)(F)F)c1)c1cccc(C(=O)N2CCC[C@H]2c2ccc(F)cc2)c1 [Example 67, N-[(1S,2R)-1-Benzyl-2-hydroxy-3-(3-trifluoromethyl-benzylamino)-propyl]-3-[(S)-2-(4-fluoro-phenyl)-pyrrolidine-1-carbonyl]-benzamide]
